Reference: paper PMC8802628, “Selective activation of PFKL suppresses the phagocytic oxidative burst” (Cell, 2021)

Experiments:
[1] = target: T1, recombinant NAMPT (Homo sapiens, UniProt P43490); experiment: NAMPT activity assay; assay type: biochemical; settings: 500 nM to 160 pM
T1 construct: purchased BPS Bioscience 71276-1
Description: NA-11 was diluted in ultra-pure water at concentrations between 500 nM to 160 pM, and preincubated with recombinant NAMPT for 30 min. NAMPT activity was measured using a fluorescence NAMPT Inhibitor Screening assay kit (BPS Bioscience).

[2] = test system: human bronchial epithelial cells (HBECs); experiment: Epithelial barrier tissue damage assay (FITC-dextran); assay type: cell-based; settings: PMA-activated neutrophils on HBECs
Description: Human bronchial epithelial cells (HBECs) (4 × 10^4 in […] complete PneumaCult-Ex plus medium) were added to a HTS Transwell-96 permeable support plate (polyester membrane with a 0.4 μm pores) and immersed in receiver plates containing 150 μL of complete PneumaCult-Ex plus medium for 3 days. The medium on confluent monolayers was then replaced with RPMI medium containing neutrophils (4 × 10^4) in RPMI buffer that were previously treated with 5 μM NA-11, 100 μM apocynin, 5 μM NA-4, or DMSO vehicle and then activated with 100 nM PMA. The transwell plate was cultured in a new receiver plate containing 150 μL Hank’s balanced salt solution (HBSS) for 2 h. 10 μL of DMEM supplemented with 5% FBS and 2 mM L-glutamine were added to each well and the plate was incubated for additional 18 h. To measure the permeability of the epithelial barrier, FITC-dextran (200 μg/mL) and DNase-1 (22 Units/mL) were added to the apical side for 1 h. FITC-dextran in the receiver plate was measured (ex: 494 em: 521).

[3] = target: T2, 14-3-3 protein beta/alpha (YWHAB) (Homo sapiens, UniProt P31946); experiment: PISA of neutrophil lysates (Data S2); assay type: binding; settings: Comparison NA11_MidT-DMSO_MidT
T2 construct: endogenous in cells; host or cells: human blood leukocytes, labelled live
T2 sequence (P31946 whole entry): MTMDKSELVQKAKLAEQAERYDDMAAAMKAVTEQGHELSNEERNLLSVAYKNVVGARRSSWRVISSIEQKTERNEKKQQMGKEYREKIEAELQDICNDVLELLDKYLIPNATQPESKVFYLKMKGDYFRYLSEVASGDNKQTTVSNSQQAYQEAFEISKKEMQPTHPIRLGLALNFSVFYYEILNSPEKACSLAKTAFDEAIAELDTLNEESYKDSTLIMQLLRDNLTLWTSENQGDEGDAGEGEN
Description: (§1) Neutrophils (3 × 10^7) were treated with 50 nM PMA for 20 min. Cell were washed twice in D-PBS, resuspended in KB buffer (25 mM Tris-HCL pH 7.5, 1 mM DTT, 10 mM MgCl2) and frozen in liquid nitrogen. Lysates were prepared by 5-7 freeze-thaw cycles in KB buffer. Protein concentration was determined via Bradford assay and lysates were incubated on ice for 30 min with either 10 μM NA-11 or DMSO vehicle. Samples were analyzed in two formats: (1) classical thermal proteome profiling (TPP) with full melting curves using 16-plex TMT labeling (8 temperatures between 37-65°C), and (2) Proteome Integral Solubility Alteration (PISA) assay with aggregated protein abundance from a defined temperature range using 10-plex TMT labeling (Five replicates 44-58°C). Aliquots (5 mg) were divided and heated at 8 temperatures in the 37-65°C range or 6 temperatures in the 44-58°C range, and cooled on ice for 3 min.
(§2) For TPP, heated lysates from different temperatures were kept separate. For PISA, lysates from different temperatures were combined based on treatment. Samples were centrifuged at 20,000 x g for 20 min at 4°C and supernatants were isolated for analysis. Proteins were denatured in 4 M urea, reduced with 5 mM DTT at 60°C for 20 min, and alkylated with 11 mM iodoacetamide (IAA) for 20 min. Urea was diluted to 2 M with 20 mM HEPES. Proteins were digested with Lys-C (Wako) diluted 1:50 for 3 h at 37°C, and then with Trypsin (PTMScan) diluted 1:100 overnight at 37°C. Peptides were cleaned on C18 Sep-Pak cartridges, 50 mg absorbent (Waters, WAT054960) and labeled with 16-plex TMTpro or 10-plex TMT. Labeled peptides were pooled, cleaned on a C18 Sep-Pak cartridge, and fractionated by offline high pH reversed phase separation and combined into 12 fractions in checkerboard fashion. Peptides were cleared on C18 STAGE-tips before mass spectrometry.
(§3) For the classical TPP, quantitative data from each temperature were used to generate a thermal titration curve and calculate a melting point. PSM level quantitation was log2 transformed and summarized to protein level by aggregating all PSMs from the same primary Uniprot reference, and systematic variation between the treatments was normalized at each temperature. A thermal titration curve was fitted from experimental data for each protein and for each treatment condition using Self-Starting Nls Four-Parameter Logistic Model from stats v3.6.2 in R. Melting point was calculated at the 50% between intensity at the lowest temperature and intensity at the highest temperature. A quality score is calculated for each protein by evaluating R squares, curve slopes and similarity in slopes between the two fitted curves. For the PISA experiment, quantitative data from each replicate of combined temperatures were used to calculate fold changes and p values between the treatment conditions. Quantified PSMs were normalized based on global median abundance among all PSMs, and then summarized to the protein level using statistical package MSstats_3.14.1 ([Choi et al., 2014]). Fold changes and p values were calculated between pre-defined treatment groups by the MSstats package. For the photoaffinity probe based pull-down study, pairwise differential analysis was applied to treatment groups. TMT abundance of all PSMs was aggregated to their respective proteins. Ratios between each treatment group were calculated based on their mean protein abundance from replicates and a Student’s t test was applied to each pair to calculate p values. […]

[4] = target: T3, 14-3-3 protein epsilon (YWHAE) (Homo sapiens, UniProt P62258); experiment: PISA of neutrophil lysates (Data S2); assay type: binding; settings: Comparison NA11_MidT-DMSO_MidT
T3 construct: endogenous in cells; host or cells: human blood leukocytes, labelled live
T3 sequence (P62258 whole entry): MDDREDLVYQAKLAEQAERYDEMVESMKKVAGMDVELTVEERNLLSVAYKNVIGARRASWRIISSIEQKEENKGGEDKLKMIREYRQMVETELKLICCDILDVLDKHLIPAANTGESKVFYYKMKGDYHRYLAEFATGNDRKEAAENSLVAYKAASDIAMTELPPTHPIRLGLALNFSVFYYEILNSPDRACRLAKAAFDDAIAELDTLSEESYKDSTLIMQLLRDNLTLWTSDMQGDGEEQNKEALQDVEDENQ
Description: as §1, §2, §3

[5] = target: T4, 14-3-3 protein eta (YWHAH) (Homo sapiens, UniProt Q04917); experiment: PISA of neutrophil lysates (Data S2); assay type: binding; settings: Comparison NA11_MidT-DMSO_MidT
T4 construct: endogenous in cells; host or cells: human neutrophil lysate
T4 sequence (Q04917 whole entry): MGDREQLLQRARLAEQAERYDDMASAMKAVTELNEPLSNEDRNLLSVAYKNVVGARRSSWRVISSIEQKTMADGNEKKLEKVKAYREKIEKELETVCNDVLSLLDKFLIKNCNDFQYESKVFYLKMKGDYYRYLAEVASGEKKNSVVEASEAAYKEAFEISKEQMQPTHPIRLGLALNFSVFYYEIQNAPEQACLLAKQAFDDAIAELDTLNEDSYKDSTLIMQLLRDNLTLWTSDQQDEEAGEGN
Description: as §1, §2, §3

[6] = target: T5, 14-3-3 protein gamma (YWHAG) (Homo sapiens, UniProt P61981); experiment: PISA of neutrophil lysates (Data S2); assay type: binding; settings: Comparison NA11_MidT-DMSO_MidT
T5 construct: endogenous in cells; host or cells: human neutrophil lysate
T5 sequence (P61981 whole entry): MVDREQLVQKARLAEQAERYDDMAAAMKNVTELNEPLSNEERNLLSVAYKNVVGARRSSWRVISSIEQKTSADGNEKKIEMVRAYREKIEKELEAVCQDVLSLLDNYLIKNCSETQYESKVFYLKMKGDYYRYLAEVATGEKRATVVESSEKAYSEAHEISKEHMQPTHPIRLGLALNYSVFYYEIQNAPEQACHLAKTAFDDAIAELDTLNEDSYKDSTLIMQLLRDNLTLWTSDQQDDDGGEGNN
Description: as §1, §2, §3

[7] = target: T6, 14-3-3 protein theta (YWHAQ) (Homo sapiens, UniProt P27348); experiment: PISA of neutrophil lysates (Data S2); assay type: binding; settings: Comparison NA11_MidT-DMSO_MidT
T6 construct: endogenous in cells; host or cells: human neutrophil lysate
T6 sequence (P27348 whole entry): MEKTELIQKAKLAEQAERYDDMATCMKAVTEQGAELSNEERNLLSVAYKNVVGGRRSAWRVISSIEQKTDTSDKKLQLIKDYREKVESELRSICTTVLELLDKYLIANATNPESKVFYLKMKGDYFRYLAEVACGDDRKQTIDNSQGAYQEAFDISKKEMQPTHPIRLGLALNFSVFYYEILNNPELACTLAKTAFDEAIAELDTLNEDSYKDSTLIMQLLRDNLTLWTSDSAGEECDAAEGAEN
Description: as §1, §2, §3

T1 sequence (P43490 whole entry, species assumed): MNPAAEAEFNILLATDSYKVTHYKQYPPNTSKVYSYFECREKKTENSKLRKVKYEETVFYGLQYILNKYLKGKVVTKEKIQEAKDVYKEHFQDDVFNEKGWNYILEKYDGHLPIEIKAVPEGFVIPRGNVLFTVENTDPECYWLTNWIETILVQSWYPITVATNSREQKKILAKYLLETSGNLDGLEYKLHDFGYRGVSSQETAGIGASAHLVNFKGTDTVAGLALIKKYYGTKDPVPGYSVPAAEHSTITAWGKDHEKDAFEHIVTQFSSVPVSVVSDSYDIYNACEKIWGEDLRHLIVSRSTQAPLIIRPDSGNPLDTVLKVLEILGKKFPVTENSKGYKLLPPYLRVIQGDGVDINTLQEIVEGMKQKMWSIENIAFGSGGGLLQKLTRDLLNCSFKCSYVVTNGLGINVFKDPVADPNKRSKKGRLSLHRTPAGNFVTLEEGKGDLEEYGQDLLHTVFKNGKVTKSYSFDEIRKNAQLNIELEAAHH

CC(=O)Nc1ccc2c(c1)OCc1cc(-c3ccccc3C#CCCCO)nn1C2 [NA-11]
activity of recombinant NAMPT [1]: did not affect the activity of recombinant NAMPT | protection of epithelial layer from neutrophil-induced oxidative damage [2]: protected the epithelial layer | log2FC [3]: -0.07 | log2FC [4]: -0.04 | log2FC [5]: 0.0948 | log2FC [6]: 0.0136 | log2FC [7]: -0.18
